Consider two compounds from US20030013660A1, “Dioxolane analogs for improved inter-cellular delivery” (Shire BioChem Inc., priority 2000, published 2003).

The structures appear in SMILES notation. “And” between values parts separate entries of the source, which are not always exact repeats. Equal entries are not always repeated.

Data set [1] deals with H-460. The data set is described as follows: 3H-TdR (3H-thymidine) incorporation assay at 72 hr. It counts as cell-based, Human.
The test system of data set [2] is SF-268. The data set is described as follows: 3H-TdR (3H-thymidine) incorporation assay at 72 hr. The format is cell-based, Human.
Data set [3] has as its system MCF-7. The data set is described as follows: 3H-TdR (3H-thymidine) incorporation assay at 72 hr. The format is cell-based, Human.
The subject of data set [4] is MCF-7. Briefly: MTT assay at 72 hr (24 hr drug exposure, wash, 48 hr). The format is cell-based. Conditions: Homo sapiens, MCF7, read-out: IC50 MCF-7 24 h, Average, MTT at 72 hr, Average of the experiments. The protocol:
(§1) Exposition of 24hr to drug, washed, and incubated for another 48hr (total of 72hr assay)

Data set [5] concerns H-460. Described as above. It counts as cell-based. The protocol:
as §1

The subject of data set [6] is SF-268. The data set is described as above. It counts as cell-based. Conditions: Homo sapiens, SF-268, read-out: IC50 SF-268 24 h, Average, MTT at 72 hr, Average of the experiments. The procedure:
as §1

In data set [7] the test system is CEM/dCK-. The data set is described as follows: 3H-TdR (3H-thymidine) incorporation assay at 72 hr. It counts as cell-based. The procedure: (§2) Table of IC50 Values (μM) for Controls
(§3) Exposition of 24 hr to drug, wash, incubated for another 48 hr (total of 72 hr assay)
(§4) (3H-Thymidine Incorporation Assay)

Data set [8] has as its system CCRF-CEM. Briefly: 3H-TdR (3H-thymidine) incorporation assay at 72 hr. The format is cell-based. The protocol: as §2, §3, §4
Another data set relates to CEM/dCK cells. Briefly: CellTiter 96 cell proliferation assay (chemosensitivity), 48 h. The settings on record: read-out: EC50 (50% of the dose response curve), 48 h exposure. The format is cell-based. The protocol: (§5) The chemosensitivity of suspension cells lines (e.g., CEM or CEM-derivatives) is assessed using the CellTiter 96 ? proliferation assay. […] Adherent cell lines (e.g., DU145 or DU145^R) are seeded (^˜10^5 cells) in triplicate dishes, 24 h before drug exposure. Growth inhibition is determined by trypsinization and counting cells electronically.

For data set [9], the system named is CEM/ARAC8C cells. The data set is described as above. It counts as cell-based. The procedure: as §5
Another data set has as its system CEM cells. Described as above. It counts as cell-based. The protocol: as §5
The subject of data set [10] is CEM/dCK-. Briefly: MTT or WST-1 assay at 72 hr (24 hr drug exposure, wash, 48 hr). The format is cell-based. The protocol:
as §1

Data set [11] concerns CCRF-CEM. Described as above. The format is cell-based. Conditions: Homo sapiens, CCRF-CEM, read-out: IC50 CCRF-CEM 24 h, Average, MMT or WST-1 at 72 hr, Average of the experiments. The procedure:
as §1

The subject of data set [12] is CEM/ARAC8C cells. Briefly: Cellular uptake assay of [3H]nucleoside in nucleoside-transport deficient CEM/ARAC8C cells. It counts as in vitro ADME. The protocol:
FIG. 1 Comparative uptake of 30 μM [^3H]-troxacitabine in CEM (Panel A) and CEM/ARAC8C (Panel B) cells. [^3H]-Uridine uptake in either the presence or absence of the hENT1 inhibitor, NBMPR or 5 mM non-radioactive uridine was included for comparison as a control substrate.

A further data set concerns the target T1, hENT1 (Homo sapiens, UniProt Q99808).
T1 sequence (Q99808 1-456): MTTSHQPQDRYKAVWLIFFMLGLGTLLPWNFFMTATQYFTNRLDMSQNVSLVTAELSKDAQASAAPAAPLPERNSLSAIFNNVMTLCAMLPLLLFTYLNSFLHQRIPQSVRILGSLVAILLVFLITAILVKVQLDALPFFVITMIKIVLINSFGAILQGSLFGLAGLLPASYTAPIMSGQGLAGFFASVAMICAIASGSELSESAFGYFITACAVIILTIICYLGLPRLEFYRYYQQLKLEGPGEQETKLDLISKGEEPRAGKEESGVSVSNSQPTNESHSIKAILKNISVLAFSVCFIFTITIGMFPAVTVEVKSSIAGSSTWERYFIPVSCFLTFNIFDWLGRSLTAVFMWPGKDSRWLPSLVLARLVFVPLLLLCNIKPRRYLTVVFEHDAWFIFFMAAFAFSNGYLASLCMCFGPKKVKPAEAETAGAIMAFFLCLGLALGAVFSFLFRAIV
The data set is described as follows: Cellular uptake assay of [3H]nucleoside in DU145 cells, with or without NBMPR or excess non-radioactive troxacitabine. Set-up: The presence of functional es-mediated transport (hENT1) in DU145 cells; endogenous in cells; host or cells: DU145 cells. The settings on record: DU-145, 10 μM, 6-min time course, read-out: inhibition of total [3H]uridine uptake in the presence of NBMPR. The format is in vitro ADME. The procedure: Cancer Res., 56: 4187-4191.
This experiment is designed to show whether [^3H]L-troxacitabine (10 μM) is taken up by DU145 cells and if the rate of uptake is affected by the addition of high concentrations (1 mM) of non-radioactive troxacitabine.

For the compound `Nc1ccn([C@@H]2O[C@H](CO)[C@@H](O)C2(F)F)c(=O)n1` [Gemcitabine, gemcitabine, reference compound], the IC50 in the data set with H-460 [1] (Homo sapiens, NCI-H460, 24 h, read-out: IC50 H-460 24 h, Average, Average ± spread of the repeat determinations, 24 h exposure) is 0.011 µM; in the data set with H-460 [1] (read-out: IC50 H-460 24 h, 24 h drug exposure, wash, another 48 hr, 3H-TdR incorporation at 72 hr), 0.0091 µM and 0.01 µM and 0.0083 µM; in the data set with SF-268 [2] (Homo sapiens, SF-268, 24 h, read-out: IC50 SF-268 24 h, Average, Average ± spread of the repeat determinations, 24 h exposure) it was 0.0086 µM; in the data set with SF-268 [2] (read-out: IC50 SF-268 24 h, 24 h drug exposure, wash, another 48 hr, 3H-TdR incorporation at 72 hr), 0.0045 µM and 0.01 µM and 0.0094 µM; with MCF-7 [3] (Homo sapiens, MCF7, 24 h, read-out: IC50 MCF-7 24 h, Average, Average ± spread of the repeat determinations, 24 h exposure), 0.0068 µM; with MCF-7 [3] (read-out: IC50 MCF-7 24 h, 24 h drug exposure, wash, another 48 hr, 3H-TdR incorporation at 72 hr), 0.0087 µM and 0.01 µM. In addition, the IC50 in the data set on MCF-7 [4] was 0.078 µM; with H-460 [5] (Homo sapiens, NCI-H460, read-out: IC50 H-460 24 h, Average, MTT at 72 hr, Average of the experiments), 0.072 ± 0.1 µM; with H-460 [5] (read-out: IC50 H-460 24 h, MTT at 72 hr, 24 h exposure, single experiment), 0.012 µM and 0.086 µM; with SF-268 [6], 0.18 ± 0.25 µM; with CEM/dCK- [7] (24 h, read-out: IC50 CEM/dCK- 24 h, Average, Average ± spread of the repeat determinations, 24 h exposure), 66 ± 24 µM; in the data set on CEM/dCK- [7] (read-out: IC50 CEM/dCK- 24 h, 24 h drug exposure, wash, another 48 hr, deoxycytidine kinase-deficient CCRF-CEM), 51 µM and 41 µM and 30 µM. In addition, the IC50 is 0.0084 µM with CCRF-CEM [8] (Homo sapiens, CCRF-CEM, 24 h, read-out: IC50 CCRF-CEM 24 h, Average, Average ± spread of the repeat determinations, 24 h exposure); 0.01 µM and 0.0092 µM with CCRF-CEM [8] (read-out: IC50 CCRF-CEM 24 h, 24 h drug exposure, wash, another 48 hr, 3H-TdR incorporation at 72 hr); 57 ± 39 µM in the data set on CEM/dCK- [10] (read-out: IC50 CEM/dCK- 24 h, Average, MMT or WST-1 at 72 hr, Average of the experiments); 0.02 ± 0.023 µM in the data set with CCRF-CEM [11]. The “Factor* (Resistance Factor), Average” value in the data set on CEM/dCK- [7] (Average ± spread of the ratios dCK- on wild-type CCRF-CEM) was 8618 ± 3614. Also, the EC50 in the data set on CEM/dCK cells is over 50 µM; in the data set with CEM/ARAC8C cells [9] (read-out: EC50 (50% of the dose response curve), CEM/ARAC8C cells, 48 h exposure), 8.63 µM; with CEM cells (Homo sapiens, CCRF-CEM, read-out: EC50 (50% of the dose response curve), CEM cells, 48 h exposure), 0.02 µM. The “level of resistance of nucleoside-transport deficient CEM/ARAC8C cells” value with CEM/ARAC8C cells [9] (CEM/ARAC8C compared to CEM) turned out to be 431 fold. Also, the “effect of the es transport inhibitor NBMPR on resistance of CEM cells” value with CEM cells (presence of NBMPR) was “increased resistance”. The “Resistance Factor*, Average” value in the data set with CEM/dCK- [10] (CEM/dCK- versus CCRF-CEM, Average of the experiments) stood at 3987 ± 3871.
Consider `O=c1ccn([C@@H]2O[C@H](CO)[C@@H](O)[C@H]2O)c(=O)[nH]1` [uridine], for which the “uptake of [3H]nucleoside over the 6-min time course” value in the data set on CEM/ARAC8C cells [12] was “Lack of [^3H]uridine uptake”. Also, on hENT1, the inhibition at 10 µM is about 75%.
